Patent US12139458B2, “(2,5-dioxopyrrolidin-1-yl)(phenyl)-acetamide derivatives and their use in the treatment of neurological diseases” (UNIWERSYTET JAGIELLONSKI, priority 2019, dated 2024)

Assays:
CYP2D6 = target: T1, CYP2D6 (Homo sapiens, UniProt P10635); test: CYP2D6 P450-Glo luminescence test; assay type: in vitro ADME; conditions: 10 μM
T1 construct: purchased Promega (Madison, WI, USA)
Procedure: Effect of compound 6 on cytochrome P-450 3A4 and 2D6 activity. The research was conducted using commercial luminescence tests CYP3A4 P450-Glo™ and CYP2D6 P450-Glo™ from Promega (Madison, WI, USA) based on the methodology described in the literature (Socała, K.; Mogilski, S.; Pieróg, M.; Nieoczym, D.; Abram, M.; Szulczyk, B.; Lubelska, A.; Latacz, G.; Doboszewska, U.; Wlaź, P.; Kamiński, K. ACS Chem. Neurosci. 2018, doi: 10.1021/acschemneuro.8b00476; Latacz, G.; Lubelska, A.; Jastrzȩbska-Wiȩek, M.; Partyka, A.; Sobato, A.; Olejarz, A.; Kucwaj-Brysz, K.; Satata, G.; Bojarski, A. J.; Wesołowska, A.; Kieć-Kononowicz, K.; Handzlik, J. Chem. Biol. Drug. Des. 2017, 90, 1295-1306). The CYP isoforms selected for study are responsible for the metabolism of approximately 40-50% of the drugs available on the market, and their stimulation or inhibition determines the majority of metabolic drug interactions. […] In summary, the results obtained indicate a low probability of potential metabolic interactions caused by 6.

[1] = system: voltage-dependent sodium channels in the prefrontal cortex pyramidal neurons; test: In vitro electrophysiological study of sodium currents; assay type: cell-based, Rats
Procedure: The experiments were carried out in accordance with institutional and international guidelines regarding the ethics of animal research. Rats (3 weeks old) were anesthetized with ethyl chloride and decapitated. The brains were then removed and placed in ice-cold extracellular fluid. The methodology of slice preparation and pre-incubation has been described earlier (Szulczyk, B.; Nurowska, E. Biochem. Biophys. Res. Commun. 2017, 491, 291-295). The sections containing the prefrontal cortex were enzymatically and mechanically dispersed. Single prefrontal cortex pyramidal neurons were visualized using an inverted microscope (Nikon). Sodium currents were induced by rectangular depolarizing stimuli. The potential between depolarizing stimuli was maintained at −65 mV. […]
The extracellular fluid washing the neurons contained (in mM): NaCl (30), choline chloride (90), TEA-Cl (30), CaCl2 (2), MgCl2 (2), glucose (15), HEPES (10), LaCl3 (0.001) and CdCl2 (0.4) (pH 7.4). Currents were recorded using an Axopatch 1D amplifier and analyzed using pClamp software (Axon Instruments and Molecular Devices, USA). […]
The patch membrane was ruptured by suction or by an electrical stimulus, and then membrane capacitance was compensated. […] The leakage current was subtracted from the recorded currents. […]

[2] = Rotarod test (motor coordination); assay type: in vivo; conditions: male, Swiss albino (CD-1), mouse, in vivo, ip, mice
Method in brief: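 Compounds were given i.p. in 1% aqueous Tween as single doses 30 min before testing, 4 mice per group, after training the day before. Mice were tested on a 2 cm rod at 10 rpm for 60 s, and failure to stay on for 1 min counted as impairment. Statistics: one-way ANOVA with Dunnett's test, p<0.05.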

[3] = system: male Swiss albino mice (CD-1); test: Maximal electroshock seizure test (MES); assay type: in vivo
Method in brief: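 Male CD-1 mice (18–26 g) received compound i.p. in 1% aqueous Tween 30 min before a 0.2 s, 500 V, 25 mA auricular electroshock.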

T1 sequence (P10635 whole entry): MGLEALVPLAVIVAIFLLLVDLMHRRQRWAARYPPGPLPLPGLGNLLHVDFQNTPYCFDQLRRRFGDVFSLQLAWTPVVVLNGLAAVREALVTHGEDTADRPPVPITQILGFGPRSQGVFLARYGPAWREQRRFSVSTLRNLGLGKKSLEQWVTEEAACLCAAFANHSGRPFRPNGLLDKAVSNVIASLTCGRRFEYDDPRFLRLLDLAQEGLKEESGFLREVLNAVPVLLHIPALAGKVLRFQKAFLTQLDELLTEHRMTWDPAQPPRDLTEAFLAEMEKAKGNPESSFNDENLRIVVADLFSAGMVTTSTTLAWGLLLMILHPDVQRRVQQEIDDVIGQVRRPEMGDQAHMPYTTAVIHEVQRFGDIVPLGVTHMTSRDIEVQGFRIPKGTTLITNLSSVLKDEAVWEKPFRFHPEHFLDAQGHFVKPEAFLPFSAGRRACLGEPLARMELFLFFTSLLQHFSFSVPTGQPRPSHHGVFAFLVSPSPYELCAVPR

O=C(C(c1ccccc1)N1C(=O)CCC1=O)N1CCN(c2cccc(C(F)(F)F)c2)CC1 (racemic) [Compound 6, 1-(2-Oxo-1-phenyl-2-(4-(3-(trifluoromethyl)phenyl)piperazin-1-yl)ethyl)pyrrolidine-2,5-dione]
effect on CYP2D6 activity (CYP2D6): very weak stimulating effect
maximum amplitude of sodium currents normalized to control (1.0) ([1]; 100 μM, in the presence of the compound, holding -65 mV): 0.59±0.08
sodium current amplitude normalized to control after washing out ([1]; after wash-out of 100 μM, n=5): 0.79±0.07
TD50 at 0.5 h [2]: 196 mg/kg
ED50 ([3]; Mus musculus, ip, 0.5 h, mice): 23.7 mg/kg
mice protected in the MES test ([3]; screening, 100 mg/kg, time point 0.5 h): 100%
